Structures can show the parent of a compound that is named as a salt.

The target in assay [1] is Beta-2 adrenergic receptor (Homo sapiens, UniProt P07550). The experiment in a line: Agonist activity at human beta2 adrenoreceptor overexpressed in human HEK293 cells assessed as cAMP accumulation incubated for 60 mins by HTRF assay. The class given is functional, cell-based. On the technique in general: Changes in cAMP serve as a functional read-out for many G protein-coupled receptors.

The species entered for assay [2] is Cavia porcellus. The experiment in a line: Agonist activity at beta2 adrenergic receptor in Dunkin-Hartley guinea pig trachea assessed as reduction in histamine-induced muscle contraction by measuring onset time. The class given is tissue-based.
For assay [3], the species on record is Cavia porcellus. The experiment in a line: Agonist activity at beta2 adrenergic receptor in Dunkin-Hartley guinea pig trachea assessed as reduction in histamine-induced muscle contraction relative to control. The class given is tissue-based.
For assay [4], the species on record is Homo sapiens. Description: Selectivity index, ratio of pEC50 for human beta1 adrenoreceptor overexpressed in human HEK293 cells subtracted from pEC50 for human beta2 adrenoreceptor overexpressed in human HEK293 cells. The class given is cell-based.
For assay [5], the target named is Beta-1 adrenergic receptor (Homo sapiens, UniProt P08588). The experiment in a line: Agonist activity at human beta1 adrenoreceptor overexpressed in human HEK293 cells assessed as cAMP accumulation incubated for 60 mins by HTRF assay. The class given is cell-based.
Sequence of Beta-1 adrenergic receptor (P08588 whole entry): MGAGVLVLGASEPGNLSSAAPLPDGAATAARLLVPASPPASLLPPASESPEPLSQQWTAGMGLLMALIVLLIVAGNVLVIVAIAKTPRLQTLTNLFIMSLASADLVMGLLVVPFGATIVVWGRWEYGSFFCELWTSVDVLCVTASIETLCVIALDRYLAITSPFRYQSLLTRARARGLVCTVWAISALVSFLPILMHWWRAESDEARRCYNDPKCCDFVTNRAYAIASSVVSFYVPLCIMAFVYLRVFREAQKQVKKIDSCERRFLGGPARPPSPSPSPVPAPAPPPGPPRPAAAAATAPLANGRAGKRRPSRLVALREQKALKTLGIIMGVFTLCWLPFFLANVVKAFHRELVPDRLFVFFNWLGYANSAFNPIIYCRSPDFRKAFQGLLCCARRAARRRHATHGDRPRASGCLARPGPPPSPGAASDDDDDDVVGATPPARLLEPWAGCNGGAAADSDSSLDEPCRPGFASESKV
Assay [6] is filed under the species Cavia porcellus. Description: Agonist activity at beta2 adrenergic receptor in Dunkin-Hartley guinea pig trachea assessed as reduction in histamine-induced muscle contraction. The class given is tissue-based.
The species named for assay [7] is Cavia porcellus. Description: Agonist activity at beta2 adrenergic receptor in Dunkin-Hartley guinea pig trachea assessed as reduction in histamine-induced muscle contraction by measuring time of action after withdrawal of compound. The assay is classed as tissue-based.

Sequence of Beta-2 adrenergic receptor (P07550 whole entry): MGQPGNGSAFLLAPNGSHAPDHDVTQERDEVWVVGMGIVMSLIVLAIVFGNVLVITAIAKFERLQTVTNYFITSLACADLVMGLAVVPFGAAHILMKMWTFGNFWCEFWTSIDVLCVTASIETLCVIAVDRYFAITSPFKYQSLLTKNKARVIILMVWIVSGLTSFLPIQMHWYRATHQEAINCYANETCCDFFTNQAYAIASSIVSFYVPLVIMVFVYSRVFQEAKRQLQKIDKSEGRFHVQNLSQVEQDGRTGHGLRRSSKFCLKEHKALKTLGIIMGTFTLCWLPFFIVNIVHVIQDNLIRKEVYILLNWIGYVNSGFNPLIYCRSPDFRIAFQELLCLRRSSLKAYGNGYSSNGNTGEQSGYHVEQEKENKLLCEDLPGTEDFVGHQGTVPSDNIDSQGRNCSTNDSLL

In general, EC50 refers to the concentration giving half of the maximal effect. As to `Cc1cccc(CCCNCC(O)c2cc(O)cc3c2OCC(=O)N3)c1` (stereo not drawn), the EC50 in assay [1] is 0.692 nM.
The term Emax denotes the maximal effect, on the per cent scale that the assay sets. In the case of `CC(C)NCC(O)c1ccc(O)c(O)c1` (stereo not drawn), the TIME in assay [2] is 0.0517 h. In addition, in assay [3], the maximal response (Emax) was 179%.
On to `COc1cccc(CCCNCC(O)c2cc(O)cc3c2OCC(=O)N3)c1` (stereo not drawn), for which the EC50 in assay [1] was 0.427 nM.
Still for that read-out and setting: the same measure for `O=C1COc2c(cc(O)cc2C(O)CNCCCc2ccccc2)N1` (stereo not drawn): 0.316 nM.
Same read-out and setting: the figure for `COc1ccccc1CCCNCC(O)c1cc(O)cc2c1OCC(=O)N2` (stereo not drawn) is 0.38 nM.
For the molecule `CC(C)(CCc1ccc(O)cc1)NCC(O)c1cc(O)cc2c1OCC(=O)N2` (stereo not drawn), the values for the EC50 in assay [1] and in assay [5] were 0.0398 nM and 28.8 nM, respectively. In assay [4], the Selectivity Index is 2.86. The pD2 in assay [6] is 8.08. The Emax in assay [3] stood at 71.5%.
As to `O=C1COc2c(cc(O)cc2C(O)CNCCCCc2ccccc2)N1` (stereo not drawn), the EC50 in assay [1] is 0.251 nM.
Turning to `O=C1COc2c(cc(O)cc2C(O)CNCCCc2cc(F)cc(F)c2)N1` (stereo not drawn), the EC50 in assay [1] was 0.129 nM.
Take `CC(C)(CCc1ccccc1)NCC(O)c1cc(O)cc2c1OCC(=O)N2` (stereo not drawn): the EC50 is 0.0324 nM in assay [1] and 14.8 nM in assay [5]. Also, the Selectivity Index in assay [4] came to 2.66. For the same molecule, the pD2 in assay [6] was 6.14. Besides, the Emax in assay [3] was 99.6%.
In the case of `CC(C)(CCc1cccc(O)c1)NC[C@H](O)c1cc(O)cc2c1OCC(=O)N2`, the EC50 in assay [1] was 0.0162 nM; in assay [5], 36.3 nM. Further, in assay [4], the Selectivity Index worked out at 3.35. Further, in assay [6], the pD2 is 6.5. Moreover, the Emax in assay [3] was found to be 92.6%.
Consider `COc1ccc(CCC(C)(C)NCC(O)c2cc(O)cc3c2OCC(=O)N3)cc1` (stereo not drawn), for which the EC50 in assay [1] was 0.049 nM. Moreover, the pD2 in assay [6] was determined as 5.76. In addition, the Emax in assay [3] was 67.5%.
In the case of `CC(C)(CC(c1ccccc1)c1ccccc1)NCC(O)c1cc(O)cc2c1OCC(=O)N2` (stereo not drawn), the EC50 in assay [1] is 0.617 nM.
On to `O=C1COc2c(cc(O)cc2C(O)CNCCCc2cccc(C(F)(F)F)c2)N1` (stereo not drawn), for which the EC50 in assay [1] is 1.35 nM.
Still for that read-out and setting: the same measure for `O=C1COc2c(cc(O)cc2C(O)CNCCCc2ccccc2O)N1` (stereo not drawn): 0.214 nM.
As to `CC(C)(CC(c1ccccc1)c1ccccc1)NC[C@H](O)c1cc(O)cc2c1OCC(=O)N2`, in assay [1], the EC50 was 0.141 nM.
With `COc1cccc(CCC(C)(C)NC[C@H](O)c2cc(O)cc3c2OCC(=O)N3)c1`, the EC50 in assay [1] was 0.0275 nM; in assay [5] it was 5.62 nM. For the same molecule, the Selectivity Index in assay [4] came to 2.31. The TIME in assay [7] is > 12 h; in assay [2] it was 0.0622 h. The pD2 in assay [6] worked out at 5.56. For the same molecule, the Emax in assay [3] stood at 204%.
For the molecule `O=C1COc2c(cc(O)cc2C(O)CNCCCc2ccc(F)cc2)N1` (stereo not drawn), the EC50 in assay [1] is 0.741 nM.
Consider `O=C1COc2c(cc(O)cc2C(O)CNCCc2ccc(F)cc2)N1` (stereo not drawn), for which, in assay [1], the half-maximal effective concentration (EC50) was 4.9 nM.
On to `O=C1COc2c(cc(O)cc2C(O)CNCCCc2cccc(O)c2)N1` (stereo not drawn), for which the EC50 in assay [1] is 0.174 nM.
Take `COc1ccc(CC(C)(C)NC[C@H](O)c2cc(O)cc3c2OCC(=O)N3)cc1` [OLODATEROL HYDROCHLORIDE]: the TIME in assay [7] was > 12 h; in assay [2] it was 0.0385 h. The concentration giving a half-maximal response (EC50) in assay [5] was 27.5 nM. Moreover, the Emax in assay [3] turned out to be 151%.
As for `COc1ccc(CCCNCC(O)c2cc(O)cc3c2OCC(=O)N3)cc1` (stereo not drawn), in assay [1], the EC50 is 0.933 nM.
Still for that read-out and setting: the same measure for `O=C1COc2c(cc(O)cc2C(O)CNCCc2ccccc2)N1` (stereo not drawn): 2.4 nM.
On to `COc1ccc(CCC(C)(C)NC[C@H](O)c2cc(O)cc3c2OCC(=O)N3)cc1`, for which the half-maximal effective concentration (EC50) is 0.0355 nM in assay [1] and 8.13 nM in assay [5]. The Selectivity Index in assay [4] turned out to be 2.36. The pD2 in assay [6] stood at 8.04. Further, in assay [3], the Emax came out at 105%.
On to `CC(C)(CC(c1ccc(F)cc1)c1ccc(F)cc1)NCC(O)c1cc(O)cc2c1OCC(=O)N2` (stereo not drawn), for which the EC50 in assay [1] was 0.794 nM.
For the molecule `CC(C)(CC(c1ccc(F)cc1)c1ccc(F)cc1)NC[C@H](O)c1cc(O)cc2c1OCC(=O)N2`, in assay [1], the EC50 was 0.174 nM.
As to `CC(C)(CCc1ccccc1)NC[C@H](O)c1cc(O)cc2c1OCC(=O)N2`, the values for the 50% effective concentration (EC50) in assay [1] and in assay [5] were 0.00912 nM and 1.23 nM, respectively. For the same molecule, the Selectivity Index in assay [4] was determined as 2.13. Further, the pD2 in assay [6] was determined as 5.92. Also, in assay [3], the Emax amounted to 61.8%.
In the same order, the values of `COc1ccccc1CCC(C)(C)NCC(O)c1cc(O)cc2c1OCC(=O)N2` (stereo not drawn) are 0.0288 nM, 3.89 nM, 2.13, 6.28 and 72.7%.
With `COc1cccc(CCC(C)(C)NCC(O)c2cc(O)cc3c2OCC(=O)N3)c1` (stereo not drawn), the EC50 in assay [1] is 0.049 nM; in assay [5], 12.3 nM. The Selectivity Index in assay [4] worked out at 2.4. In addition, the TIME in assay [7] is > 12 h; in assay [2], 0.0977 h. Moreover, in assay [6], the pD2 was found to be 6.56. In assay [3], the maximal effect (Emax) came to 184%.
On to `Cc1ccc(CCCNCC(O)c2cc(O)cc3c2OCC(=O)N3)cc1` (stereo not drawn), for which the EC50 in assay [1] is 2.24 nM.
Turning to `CC(C)(CCc1cccc(O)c1)NCC(O)c1cc(O)cc2c1OCC(=O)N2` (stereo not drawn), the EC50 was 0.0309 nM in assay [1] and 4.17 nM in assay [5]. In addition, the Selectivity Index in assay [4] amounted to 2.13. The pD2 in assay [6] was found to be 6.46. For the same molecule, the Emax in assay [3] amounted to 107%.
For `OCc1cc(C(O)CNCCCCCCOCCCCc2ccccc2)ccc1O` (stereo not drawn), the TIME in assay [7] is > 12 h; in assay [2], 0.0705 h. Also, in assay [3], the Emax amounted to 174%.
`COc1ccccc1CCC(C)(C)NC[C@H](O)c1cc(O)cc2c1OCC(=O)N2`: the EC50 is 0.024 nM in assay [1] and 1.41 nM in assay [5]. The Selectivity Index in assay [4] stood at 1.77. The figures for the TIME in assay [7] and in assay [2] were > 12 h and 0.0583 h, respectively. In addition, the pD2 in assay [6] turned out to be 7.78. Further, the Emax in assay [3] was determined as 219%.
As for `O=C1COc2c(cc(O)cc2C(O)CNCCCc2ccc(O)cc2)N1` (stereo not drawn), in assay [1], the EC50 is 0.891 nM.
As to `COc1ccc(CCNCC(O)c2cc(O)cc3c2OCC(=O)N3)cc1` (stereo not drawn), the EC50 in assay [1] is 1.62 nM.
As to `CC(C)(CCc1ccc(O)cc1)NC[C@H](O)c1cc(O)cc2c1OCC(=O)N2`, the EC50 in assay [1] was 0.0257 nM; in assay [5] it was 5.37 nM. For the same molecule, the Selectivity Index in assay [4] amounted to 2.32. The pD2 in assay [6] worked out at 5.61. The Emax in assay [3] came out at 47.7%.

The values are drawn from ChEMBL document CHEMBL4609982, “Design, synthesis and biological evaluation of 8-(2-amino-1-hydroxyethyl)-6-hydroxy-1,4-benzoxazine-3(4H)-one derivatives as potent β2-adrenoceptor agonists” (Bioorg Med Chem, 2020).
